In assay [1] the target is Bile salt export pump (Homo sapiens, UniProt O95342). It is filed as functional.
Assay [2] has as its target T1, Adenosine receptor A1 (Homo sapiens, UniProt P30542).
T1 sequence (P30542 whole entry): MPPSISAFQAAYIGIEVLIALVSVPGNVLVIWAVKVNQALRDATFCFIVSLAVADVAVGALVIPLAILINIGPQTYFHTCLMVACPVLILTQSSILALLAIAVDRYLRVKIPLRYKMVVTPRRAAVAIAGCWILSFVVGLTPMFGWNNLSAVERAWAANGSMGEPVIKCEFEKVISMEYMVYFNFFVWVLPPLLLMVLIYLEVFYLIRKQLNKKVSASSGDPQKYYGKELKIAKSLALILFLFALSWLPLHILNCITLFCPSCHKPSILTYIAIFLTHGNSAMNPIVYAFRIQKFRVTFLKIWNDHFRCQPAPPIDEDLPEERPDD

For assay [3], the target named is Adenosine receptor A2a (Homo sapiens, UniProt P29274).
In assay [4] the target is T2, Alpha-2A adrenergic receptor (Homo sapiens, UniProt P08913).
T2 sequence (P08913 whole entry): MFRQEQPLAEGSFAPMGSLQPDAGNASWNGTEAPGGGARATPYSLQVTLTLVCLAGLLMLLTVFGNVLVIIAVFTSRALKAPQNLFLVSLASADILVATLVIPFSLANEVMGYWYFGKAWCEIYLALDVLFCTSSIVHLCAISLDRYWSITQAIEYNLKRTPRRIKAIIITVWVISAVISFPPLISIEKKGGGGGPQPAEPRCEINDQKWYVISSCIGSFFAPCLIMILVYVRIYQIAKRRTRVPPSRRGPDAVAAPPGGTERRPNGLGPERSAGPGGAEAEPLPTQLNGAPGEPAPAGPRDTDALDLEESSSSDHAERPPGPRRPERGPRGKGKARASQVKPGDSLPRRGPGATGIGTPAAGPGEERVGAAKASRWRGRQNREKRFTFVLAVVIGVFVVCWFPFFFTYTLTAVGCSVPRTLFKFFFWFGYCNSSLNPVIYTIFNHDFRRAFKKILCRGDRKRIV
It is filed as functional, cell-based.

Assay [5] deals with T2, Alpha-2A adrenergic receptor. It is filed as functional, cell-based. This is another data set of the same source.
Assay [6] deals with T3, Alpha-2C adrenergic receptor (Homo sapiens, UniProt P18825).
T3 sequence (P18825 whole entry): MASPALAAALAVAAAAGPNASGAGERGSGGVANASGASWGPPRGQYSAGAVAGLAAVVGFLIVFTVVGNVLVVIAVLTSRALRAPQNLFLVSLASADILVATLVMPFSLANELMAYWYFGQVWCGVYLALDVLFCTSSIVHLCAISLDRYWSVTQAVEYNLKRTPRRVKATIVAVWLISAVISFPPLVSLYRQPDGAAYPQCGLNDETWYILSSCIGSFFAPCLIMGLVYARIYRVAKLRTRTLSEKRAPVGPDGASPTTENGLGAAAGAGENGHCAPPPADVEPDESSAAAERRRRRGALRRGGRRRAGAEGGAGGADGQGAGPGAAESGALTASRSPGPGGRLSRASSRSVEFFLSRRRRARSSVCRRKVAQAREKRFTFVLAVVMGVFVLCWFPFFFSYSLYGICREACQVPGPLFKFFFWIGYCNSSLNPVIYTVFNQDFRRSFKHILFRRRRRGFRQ
It is filed as functional.

The target in assay [7] is Beta-1 adrenergic receptor (Homo sapiens, UniProt P08588). It is filed as functional.
The target in assay [8] is T4, Cholecystokinin receptor type A (Homo sapiens, UniProt P32238).
T4 sequence (P32238 whole entry): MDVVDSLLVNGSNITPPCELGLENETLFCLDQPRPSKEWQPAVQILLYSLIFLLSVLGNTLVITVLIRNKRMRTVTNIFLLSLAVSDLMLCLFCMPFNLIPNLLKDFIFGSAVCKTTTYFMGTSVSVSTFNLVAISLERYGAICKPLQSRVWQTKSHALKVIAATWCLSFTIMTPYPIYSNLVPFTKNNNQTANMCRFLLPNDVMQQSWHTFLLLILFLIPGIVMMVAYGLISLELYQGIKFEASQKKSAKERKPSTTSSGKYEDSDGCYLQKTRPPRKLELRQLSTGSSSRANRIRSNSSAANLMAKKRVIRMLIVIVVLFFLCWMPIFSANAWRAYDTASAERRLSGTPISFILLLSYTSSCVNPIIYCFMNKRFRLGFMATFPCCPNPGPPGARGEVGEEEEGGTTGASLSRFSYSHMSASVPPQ

The target in assay [9] is T5, Muscarinic acetylcholine receptor M2 (Homo sapiens, UniProt P08172).
T5 sequence (P08172 whole entry): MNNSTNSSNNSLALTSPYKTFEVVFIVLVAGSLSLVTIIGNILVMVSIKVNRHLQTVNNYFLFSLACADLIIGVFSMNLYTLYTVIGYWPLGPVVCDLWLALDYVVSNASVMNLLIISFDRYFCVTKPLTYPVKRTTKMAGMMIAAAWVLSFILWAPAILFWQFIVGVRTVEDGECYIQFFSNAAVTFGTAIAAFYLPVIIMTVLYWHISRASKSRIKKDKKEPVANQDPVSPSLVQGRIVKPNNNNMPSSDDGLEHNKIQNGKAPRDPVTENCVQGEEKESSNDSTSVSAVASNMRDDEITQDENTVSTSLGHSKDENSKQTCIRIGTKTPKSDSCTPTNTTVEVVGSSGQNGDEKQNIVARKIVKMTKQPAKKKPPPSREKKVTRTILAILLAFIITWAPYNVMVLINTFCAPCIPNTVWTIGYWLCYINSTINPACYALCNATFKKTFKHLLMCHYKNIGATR
It is filed as functional, cell-based.

The target in assay [10] is Neuronal acetylcholine receptor subunit alpha-4 (Homo sapiens, UniProt P43681).
Sequence of Neuronal acetylcholine receptor subunit alpha-4 (P43681 whole entry): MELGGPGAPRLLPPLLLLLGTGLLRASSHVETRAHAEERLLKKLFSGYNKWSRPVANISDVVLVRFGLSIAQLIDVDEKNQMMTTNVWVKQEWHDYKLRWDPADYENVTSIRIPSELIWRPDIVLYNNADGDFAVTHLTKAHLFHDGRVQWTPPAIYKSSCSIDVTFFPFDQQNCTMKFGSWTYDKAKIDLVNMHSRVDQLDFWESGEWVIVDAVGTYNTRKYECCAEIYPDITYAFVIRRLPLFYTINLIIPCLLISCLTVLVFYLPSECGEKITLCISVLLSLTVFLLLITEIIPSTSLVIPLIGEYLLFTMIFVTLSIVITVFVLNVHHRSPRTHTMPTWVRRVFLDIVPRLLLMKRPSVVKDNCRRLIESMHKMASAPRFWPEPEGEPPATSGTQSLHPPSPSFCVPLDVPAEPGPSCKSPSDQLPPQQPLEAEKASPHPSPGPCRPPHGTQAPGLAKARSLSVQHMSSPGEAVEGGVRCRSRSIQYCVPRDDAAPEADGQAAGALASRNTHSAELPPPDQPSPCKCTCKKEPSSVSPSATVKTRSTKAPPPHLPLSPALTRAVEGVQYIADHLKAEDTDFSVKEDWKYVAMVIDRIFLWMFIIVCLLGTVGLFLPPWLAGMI
Assay [11] addresses 5-hydroxytryptamine receptor 2B (Homo sapiens, UniProt P41595). It is filed as functional, cell-based.
For assay [12], the target named is Voltage-gated inwardly rectifying potassium channel KCNH2 (Homo sapiens, UniProt Q12809). Type of assay: functional. To be noted: read-out: AC50.
Sequence of Voltage-gated inwardly rectifying potassium channel KCNH2 (Q12809 whole entry): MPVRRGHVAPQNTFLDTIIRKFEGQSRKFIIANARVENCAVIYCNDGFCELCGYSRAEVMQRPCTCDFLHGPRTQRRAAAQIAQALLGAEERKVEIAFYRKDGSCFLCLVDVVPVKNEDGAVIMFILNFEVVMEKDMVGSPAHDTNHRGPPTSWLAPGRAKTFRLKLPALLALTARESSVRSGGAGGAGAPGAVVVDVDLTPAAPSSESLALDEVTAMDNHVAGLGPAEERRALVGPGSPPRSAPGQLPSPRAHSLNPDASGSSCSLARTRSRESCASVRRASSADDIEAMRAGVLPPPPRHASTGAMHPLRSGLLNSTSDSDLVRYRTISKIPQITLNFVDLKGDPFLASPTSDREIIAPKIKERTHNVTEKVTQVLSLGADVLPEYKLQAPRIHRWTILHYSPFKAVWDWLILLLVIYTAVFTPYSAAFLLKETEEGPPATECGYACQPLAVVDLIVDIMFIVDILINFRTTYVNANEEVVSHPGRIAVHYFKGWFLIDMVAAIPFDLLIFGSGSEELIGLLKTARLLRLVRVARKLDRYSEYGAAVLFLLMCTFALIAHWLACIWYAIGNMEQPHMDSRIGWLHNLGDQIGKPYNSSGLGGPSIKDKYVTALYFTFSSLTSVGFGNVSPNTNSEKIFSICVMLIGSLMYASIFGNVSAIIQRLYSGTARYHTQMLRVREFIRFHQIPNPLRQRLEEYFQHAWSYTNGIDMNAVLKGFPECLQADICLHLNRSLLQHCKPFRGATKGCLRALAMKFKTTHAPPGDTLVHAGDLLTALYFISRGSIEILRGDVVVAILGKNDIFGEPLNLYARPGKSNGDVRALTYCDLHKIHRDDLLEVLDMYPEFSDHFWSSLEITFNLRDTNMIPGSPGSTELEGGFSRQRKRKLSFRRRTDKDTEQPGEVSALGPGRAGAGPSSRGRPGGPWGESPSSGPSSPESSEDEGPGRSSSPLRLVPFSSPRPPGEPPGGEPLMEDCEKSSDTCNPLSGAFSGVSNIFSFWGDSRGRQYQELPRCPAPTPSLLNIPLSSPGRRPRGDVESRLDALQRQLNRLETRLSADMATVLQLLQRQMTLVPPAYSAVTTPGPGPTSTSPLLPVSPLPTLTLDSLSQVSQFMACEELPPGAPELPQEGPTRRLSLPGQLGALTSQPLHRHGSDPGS
In assay [13] the target is Melanocortin receptor 3 (Homo sapiens, UniProt P41968).
Sequence of Melanocortin receptor 3 (P41968 whole entry): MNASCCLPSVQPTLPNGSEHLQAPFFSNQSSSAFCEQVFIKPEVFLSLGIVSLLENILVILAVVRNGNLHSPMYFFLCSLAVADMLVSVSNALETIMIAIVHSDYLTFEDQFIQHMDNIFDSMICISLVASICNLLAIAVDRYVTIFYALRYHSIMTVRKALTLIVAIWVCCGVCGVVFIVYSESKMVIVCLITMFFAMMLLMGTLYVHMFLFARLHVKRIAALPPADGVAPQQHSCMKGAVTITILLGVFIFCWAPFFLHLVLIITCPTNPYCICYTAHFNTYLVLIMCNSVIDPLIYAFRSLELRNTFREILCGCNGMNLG
For assay [14], the target named is Motilin receptor (Homo sapiens, UniProt O43193).
Sequence of Motilin receptor (O43193 whole entry): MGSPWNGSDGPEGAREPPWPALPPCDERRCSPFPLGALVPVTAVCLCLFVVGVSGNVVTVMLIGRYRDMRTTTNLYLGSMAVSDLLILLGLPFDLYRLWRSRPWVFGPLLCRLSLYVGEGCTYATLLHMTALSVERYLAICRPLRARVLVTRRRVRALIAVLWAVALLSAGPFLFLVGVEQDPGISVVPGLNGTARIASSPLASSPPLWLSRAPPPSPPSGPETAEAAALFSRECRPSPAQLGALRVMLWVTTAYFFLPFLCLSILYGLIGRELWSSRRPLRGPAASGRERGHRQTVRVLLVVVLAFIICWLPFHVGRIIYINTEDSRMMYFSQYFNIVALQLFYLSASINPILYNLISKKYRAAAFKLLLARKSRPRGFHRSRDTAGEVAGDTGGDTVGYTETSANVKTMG
The target of assay [15] is Sodium-dependent dopamine transporter (Homo sapiens, UniProt Q01959).
For assay [16], the target named is Sodium-dependent noradrenaline transporter (Homo sapiens, UniProt P23975).
Sequence of Sodium-dependent noradrenaline transporter (P23975 whole entry): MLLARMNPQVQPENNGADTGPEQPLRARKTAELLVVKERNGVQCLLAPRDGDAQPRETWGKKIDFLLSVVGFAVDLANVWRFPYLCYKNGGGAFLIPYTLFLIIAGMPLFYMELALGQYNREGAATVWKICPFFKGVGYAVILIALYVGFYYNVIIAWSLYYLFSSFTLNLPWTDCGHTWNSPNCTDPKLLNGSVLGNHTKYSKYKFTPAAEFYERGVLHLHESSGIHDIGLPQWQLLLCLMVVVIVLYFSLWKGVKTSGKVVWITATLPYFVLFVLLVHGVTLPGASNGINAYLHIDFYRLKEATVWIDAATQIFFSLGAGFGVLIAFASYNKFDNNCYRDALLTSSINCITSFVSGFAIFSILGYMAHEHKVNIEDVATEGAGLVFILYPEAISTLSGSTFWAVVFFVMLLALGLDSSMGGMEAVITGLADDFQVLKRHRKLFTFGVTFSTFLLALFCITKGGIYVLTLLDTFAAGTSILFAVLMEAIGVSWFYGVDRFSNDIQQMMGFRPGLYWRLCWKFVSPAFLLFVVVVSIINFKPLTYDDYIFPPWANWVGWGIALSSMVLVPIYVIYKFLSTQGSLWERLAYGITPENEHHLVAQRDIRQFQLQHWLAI
Assay [17] deals with D(3) dopamine receptor (Homo sapiens, UniProt P35462).

The structures appear in SMILES notation.
Further: assay procedure not described here.

Sequence of 5-hydroxytryptamine receptor 2B (P41595 whole entry): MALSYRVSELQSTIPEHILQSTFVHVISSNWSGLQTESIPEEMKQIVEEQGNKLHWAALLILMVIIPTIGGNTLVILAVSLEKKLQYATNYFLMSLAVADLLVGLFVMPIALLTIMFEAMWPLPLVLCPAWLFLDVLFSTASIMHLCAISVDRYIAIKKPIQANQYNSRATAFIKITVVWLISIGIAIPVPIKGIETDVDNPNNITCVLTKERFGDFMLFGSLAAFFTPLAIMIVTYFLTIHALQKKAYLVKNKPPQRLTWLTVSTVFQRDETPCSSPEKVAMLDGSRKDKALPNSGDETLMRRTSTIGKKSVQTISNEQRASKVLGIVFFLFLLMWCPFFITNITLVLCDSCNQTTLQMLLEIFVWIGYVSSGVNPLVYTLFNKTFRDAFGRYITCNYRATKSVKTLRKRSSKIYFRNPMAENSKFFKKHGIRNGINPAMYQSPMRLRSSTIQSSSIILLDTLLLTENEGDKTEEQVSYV
Sequence of Bile salt export pump (O95342 whole entry): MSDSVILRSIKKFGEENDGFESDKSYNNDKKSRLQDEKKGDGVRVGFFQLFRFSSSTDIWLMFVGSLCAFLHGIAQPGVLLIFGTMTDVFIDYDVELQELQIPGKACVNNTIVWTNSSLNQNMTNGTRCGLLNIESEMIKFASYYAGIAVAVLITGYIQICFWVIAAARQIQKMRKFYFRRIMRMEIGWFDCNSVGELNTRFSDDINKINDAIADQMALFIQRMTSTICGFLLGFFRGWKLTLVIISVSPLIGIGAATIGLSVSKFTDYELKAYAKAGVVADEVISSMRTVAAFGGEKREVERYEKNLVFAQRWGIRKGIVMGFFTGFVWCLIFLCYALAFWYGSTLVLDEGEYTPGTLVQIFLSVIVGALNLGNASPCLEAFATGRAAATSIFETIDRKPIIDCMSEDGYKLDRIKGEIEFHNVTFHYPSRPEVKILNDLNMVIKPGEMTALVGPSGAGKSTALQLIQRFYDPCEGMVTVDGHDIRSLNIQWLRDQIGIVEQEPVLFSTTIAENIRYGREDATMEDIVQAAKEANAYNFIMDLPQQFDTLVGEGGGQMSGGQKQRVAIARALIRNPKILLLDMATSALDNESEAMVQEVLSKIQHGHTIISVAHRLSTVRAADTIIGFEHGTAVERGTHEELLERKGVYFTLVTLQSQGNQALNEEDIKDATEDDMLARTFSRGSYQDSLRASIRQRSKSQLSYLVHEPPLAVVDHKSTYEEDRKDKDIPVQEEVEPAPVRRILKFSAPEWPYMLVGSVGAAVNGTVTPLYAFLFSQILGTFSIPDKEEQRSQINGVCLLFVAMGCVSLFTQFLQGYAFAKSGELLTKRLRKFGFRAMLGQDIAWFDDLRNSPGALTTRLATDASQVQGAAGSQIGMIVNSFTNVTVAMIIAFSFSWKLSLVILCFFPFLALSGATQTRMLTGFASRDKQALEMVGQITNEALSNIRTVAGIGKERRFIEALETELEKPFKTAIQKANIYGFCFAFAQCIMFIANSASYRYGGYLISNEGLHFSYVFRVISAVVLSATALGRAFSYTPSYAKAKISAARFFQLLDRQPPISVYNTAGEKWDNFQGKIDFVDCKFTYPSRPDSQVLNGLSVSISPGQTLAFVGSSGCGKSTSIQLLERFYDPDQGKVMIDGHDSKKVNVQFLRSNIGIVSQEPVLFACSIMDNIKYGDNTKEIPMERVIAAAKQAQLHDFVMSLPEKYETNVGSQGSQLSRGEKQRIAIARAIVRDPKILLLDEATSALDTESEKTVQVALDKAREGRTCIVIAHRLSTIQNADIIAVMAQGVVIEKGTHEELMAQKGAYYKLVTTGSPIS

For orientation: AC50 means the midpoint of the concentration-response curve, whichever way the signal moves. For the molecule `c1ccc([C@H]2CN3CCSC3=N2)cc1` [LEVAMISOLE], the AC50 was more than 300 µM in assay [1]; more than 30 µM in assay [2]; more than 30 µM in assay [3]; more than 30 µM in assay [4]; more than 30 µM in assay [5]; more than 30 µM in assay [6]. Besides, the concentration at half-maximal activity (AC50) in assay [7] was more than 30 µM; in assay [8], more than 30 µM; in assay [9], more than 30 µM; in assay [10], more than 30 µM; in assay [11] it was more than 30 µM; in [12], 18.8 µM. In addition, the AC50 in assay [13], in [14], in assay [15], in [16] and in assay [17] was more than 30 µM throughout.

`CN(C)CCC(c1ccc(Cl)cc1)c1ccccn1` (centres undefined) [CHLORPHENIRAMINE]: the AC50 in assay [1] was more than 300 µM; in assay [2], more than 30 µM; in assay [3], more than 30 µM; in assay [4], more than 10 µM; in [5], more than 10 µM; in assay [6] it was more than 10 µM. Moreover, the AC50 in assay [7] was more than 10 µM; in assay [8] it was more than 30 µM; in [9] it was more than 10 µM; in [10] it was more than 10 µM; in assay [11], more than 10 µM; in assay [13], more than 30 µM. Besides, the AC50 was more than 10 µM in assay [14], 1.46 µM in [15], 7.7 µM in assay [16] and more than 10 µM in [17].

With `CC(=O)NCCCS(=O)(=O)O` [ACAMPROSATE], the AC50 in assay [1] was more than 300 µM; in assay [2], more than 30 µM; in [3] it was more than 30 µM; in assay [4] it was more than 30 µM; in assay [5], more than 30 µM; in assay [6] it was more than 30 µM. Besides, the AC50 in assay [7], in [8], in assay [9], in assay [10], in assay [11] and in [12] was more than 30 µM throughout. For the same molecule, the AC50 in [13], in assay [14], in [15] and in assay [17] was more than 30 µM each time.

Take `Cc1nc([N+](=O)[O-])cn1-c1ccc([N+](=O)[O-])cc1` [NITREFAZOLE]: the AC50 in [1] is more than 300 µM; in [2], more than 30 µM; in assay [3], more than 30 µM; in [4] it was more than 30 µM; in assay [5] it was more than 30 µM; in assay [6], more than 30 µM. Moreover, the AC50 in [7], in assay [8], in [9], in assay [10], in assay [11] and in [12] was more than 30 µM throughout. Besides, the AC50 in assay [13], in assay [14], in assay [15] and in assay [17] was more than 30 µM each time.

Regarding `Cc1ccc(-c2cc(C(F)(F)F)nn2-c2ccc(S(N)(=O)=O)cc2)cc1` [CELECOXIB], the AC50 in assay [1] was 34 µM; in assay [2], more than 10 µM; in assay [3] it was more than 10 µM; in assay [4], more than 10 µM; in assay [5], more than 10 µM; in assay [6] it was more than 10 µM. Further, the AC50 in [7], in assay [8], in [9], in assay [10], in assay [11] and in assay [13] was more than 10 µM each time. Besides, the AC50 in assay [14] was more than 10 µM; in [15] it was 5.86 µM; in assay [16], 15.7 µM; in [17] it was more than 30 µM.

Take `C[C@H]1CNCCc2ccc(Cl)cc21` [LORCASERIN]: the AC50 was more than 300 µM in assay [1]; more than 30 µM in [2]; more than 30 µM in assay [3]; more than 30 µM in assay [4]; 7.2 µM in assay [5]; 3.6 µM in assay [6]. In addition, the AC50 was 8.3 µM in assay [7]; more than 30 µM in assay [8]; more than 30 µM in [9]; more than 30 µM in assay [10]; 6.5 µM in assay [12]; more than 30 µM in [13]. Also, the AC50 in assay [14] was more than 30 µM; in [15], more than 30 µM; in [16], 14 µM; in [17], more than 30 µM.

Turning to `COc1cc2nc(N(C)CCCNC(=O)C3CCCO3)nc(N)c2cc1OC` (centres undefined) [ALFUZOSIN], the AC50 was more than 300 µM in assay [1]; more than 30 µM in assay [2]; more than 30 µM in assay [3]; more than 30 µM in [4]; 6.8 µM in [5]; 0.81 µM in [6]. The AC50 in assay [7], in assay [8], in [9], in [10], in assay [11] and in assay [13] was more than 30 µM each time. For the same molecule, the AC50 in [14] was more than 30 µM; in assay [15], more than 30 µM; in [16], 13 µM; in assay [17] it was 15 µM.

Consider `COc1ccccc1OCC(O)CN1CCN(CC(=O)Nc2c(C)cccc2C)CC1` (centres undefined) [RANOLAZINE], for which the AC50 in assay [1] is more than 300 µM; in [2], more than 30 µM; in assay [3] it was more than 30 µM; in assay [4], more than 30 µM; in [5] it was 7.7 µM; in [6] it was 1.4 µM. Besides, the AC50 in [7] is 7.8 µM; in assay [8] it was more than 30 µM; in assay [9], more than 30 µM; in assay [10], more than 30 µM; in assay [11], more than 30 µM; in [13], more than 30 µM. The AC50 in assay [14] was more than 30 µM; in [15], more than 30 µM; in assay [16] it was more than 30 µM; in assay [17] it was 18 µM.
